Biological target: T1, CSBP/p38 (Homo sapiens, UniProt Q16539)
T1 construct: made in house; host or cells: yeast
Assay: CSBP Kinase Assay (transfer of 32P from ATP to EGFR-derived peptide T669)
Assay type: biochemical
Description: This assay measures the CSBP-catalyzed transfer of ^32P from [a-^32P]ATP to threonine residue in an epidermal growth factor receptor (EGFR)-derived peptide (T669) with the following sequence: […] (residues 661-681). (See Gallagher et al., “Regulation of Stress Induced Cytokine Production by Pyridinyl Imidazoles: Inhibition of CSPB Kinase”, BioOrganic & Medicinal Chemistry, 1997, 5, 49-64).
Reactions were carried in round bottom 96 well plate (from Corning) in a […]. Reactions contained (in final concentration): 25 mM Hepes, pH7.5; 10 mM MgCl2; 0.17 mM ATP (the Km[ATP] of p38 (see Lee et al., Nature […], n72 pg. 639-746 (December 1994) and Young et al., J. Biol. Chem. 272, n18 pg. 12116-12121 (May 1997)); 2.5 uCi of [g-32P]ATP; 0.2 mM sodium orthovanadate; 1 mM DTT; 0.1% BSA; 10% glycerol; 0.67 mM T669 peptide; and 2-4 nM of yeast-expressed, activated and purified p38. Reactions were initiated by the addition of [gamma-32P]Mg/ATP, and incubated for 25 min at 37 C. Inhibitors (dissolved in DMSO) were incubated with the reaction mixture on ice for 30 minutes prior to adding the 32P-ATP. Final DMSO concentration was 0.16%. […] Filters were washed with 75 mM phosphoric acids, and incorporated 32P was quantified using beta scintillation counter. […]

T1 sequence (Q16539 whole entry): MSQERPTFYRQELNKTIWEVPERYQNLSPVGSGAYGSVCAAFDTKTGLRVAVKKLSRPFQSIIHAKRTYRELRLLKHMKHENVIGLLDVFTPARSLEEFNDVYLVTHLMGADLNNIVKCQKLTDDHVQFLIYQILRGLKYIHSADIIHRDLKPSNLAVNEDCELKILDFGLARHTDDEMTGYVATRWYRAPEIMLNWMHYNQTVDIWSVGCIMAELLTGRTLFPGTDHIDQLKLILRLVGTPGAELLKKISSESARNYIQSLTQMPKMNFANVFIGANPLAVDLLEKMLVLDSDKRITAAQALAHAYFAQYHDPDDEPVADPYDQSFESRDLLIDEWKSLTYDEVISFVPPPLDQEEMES

Compound	IC50 (CSBP kinase assay, called "this binding assay", read-out: positive inhibitory activity, IC50) [µM]	inhibitory activity upon retesting (upon retesting, "at this micromolar amount" (IC50 of <50 uM))
Fc1ccc(-c2nccnc2-c2ccncc2)cc1 [Example 2, 2-(4-Fluorophenyl)-3-(pyridin-4-yl)pyrazine]	< 50	
COc1ccc2cc(-c3nccnc3-c3ccncc3)ccc2c1 [Example 3, 2-(6-Methoxy)napthyl-2-yl-3-(4-pyridyl)pyrazine]		not found active
